The text below walks through data of a melting point compilation (Tetko et al.; mined from patent text by program, amines drawn as free bases though some values may be those of a salt).

The melting point is the temperature of the solid-liquid transition.

`C=CCOc1cc2c(cc1C(C)=O)CCCC2` came in with a melting point of 62 to 63 °C. The molecule `Cc1c(Cc2ccncc2)nnc(Nc2cccc(Cl)c2)c1C` showed a melting point of 164 to 167 °C. `CC(=O)N1CCC(C(=O)OC2c3ccccc3C(=O)N2c2ccc3ccc(Cl)nc3n2)CC1` (stereo not given): the melting point amounted to 101 °C. Then `CCCOc1ccccc1-c1nc2cc(SC)ccc2c(=O)[nH]1`, with 156 to 158 °C. On to `COc1nc(C)cnc1NS(=O)(=O)c1cccnc1-c1ccc(COCCO)cc1`, for which the melting point is 106 to 108 °C. The figure for `COC(=O)C1=CC(=O)CCC1c1ccccc1OC` (racemic) is 76 °C. In turn, `CCOC(=O)C1CCN(C(=O)/C=C/c2ccc(Sc3ccc4c(c3)OCCO4)c([N+](=O)[O-])c2)CC1` displayed a melting point of 78 to 88 °C.

`Cc1nnc(-c2ccc3occ(-c4ccc(S(=O)(=O)CF)cc4)c3c2)o1` yielded a melting point of 191 to 192 °C.

Take `O=C(c1ccccc1)c1ccc(C(=O)N2Cc3ccccc3CCc3ccccc32)cc1`: the melting point was in the range of 89 to 92 °C.

In turn, `O=C(CCSC(=O)c1ccccc1)N[C@@H](Cc1ccccc1)C(=O)O` registered a melting point of 123 to 124 °C. Molecule `CCOC(=O)c1c(C)c(C(=O)c2ccc(SC)n2C)n2c1C(C(=O)OCC)CC2` (stereo not given) returned a melting point of 142 to 143 °C. For the molecule `CC(=O)NC[C@H]1CN(c2cc(F)c(N3CCC(n4nnc(N5CCN(C)CC5)n4)CC3)c(F)c2)C(=O)O1`, the melting point was 184 to 188 °C. In turn, `CC(=O)OC1CCC2(C)C(CCC3=C4C(=O)CC(C(C)CCCC(F)(C(F)(F)F)C(F)(F)F)C4(C)CCC32)C1` (stereo not given) gave a melting point of 187 to 188 °C.

With `Cc1oc(-c2ccccc2)nc1/C=C/c1ccc(Br)cc1`, the melting point is 138 to 139 °C. For the molecule `CC(C)S(=O)(=O)C1C(=O)N(Cc2ccccc2)C(=O)c2ccc(Cl)cc21` (stereo not given), the melting point was in the range of 150 to 152 °C.

Regarding `CC(C)(C)c1ccc(CN=C2SCN(c3ccccc3)C(=O)N2CC(F)(F)F)cc1`, the melting point is 90 to 91.5 °C. In turn, `COC(=O)C1=C(C)NC(C)=C(C(=O)OCC2CCCO2)C1c1ccc(Cl)c([N+](=O)[O-])c1` (stereo not given) displayed a melting point of 148 to 150 °C. Take `CNC(=O)Oc1ccc2c(c1)c1c(n2C)C2(CC1)CCN(C(=O)c1ccccc1)CC2`: the melting point was 189 to 190 °C. `O=C(C=Cc1ccc2ccccc2c1)c1cnc2sc3c(n12)CCCCC3` gave a melting point of 185 to 188 °C. Molecule `O=C(c1cnccn1)N1CCN(Cc2ccc3c(c2)-c2[nH]nc(-c4ccsc4)c2C3)CC1` had a melting point of 254 to 259 °C.

`Clc1ccc(NC2COc3ccc(Br)cc32)c(Cl)c1` (stereo not given) registered a melting point of 112 to 113 °C.

As for `CCCCCCCc1ccccc1C=CC(=O)c1ccc(OCC=C(C)C)cc1OCC(=O)O`, the melting point is 118 to 121 °C. In the case of `Cc1cc(C)c(C2=C(OC(=O)C(C)(C)C)CN(C)C2=O)c(C)c1`, the melting point was determined as 75 °C.

Molecule `Cc1nc(N)c2nc(C)n(NCCCNS(C)(=O)=O)c2c1C` displayed a melting point of 215 to 217 °C. On to `ClC(Cl)=CCOc1cc(Cl)c(OCCCCOc2ccc(Cl)cc2)c(Cl)c1`, for which the melting point came to 54.5 °C.

The molecule `O=S1NC(CCCc2ccc3ccccc3c2)=NO1` (stereo not given) yielded a melting point of 139 to 140 °C. Then `O=C(O)CCCc1cccc(CNC(=O)C2Cc3ccccc3N2S(=O)(=O)c2ccc(-c3cccc(C(F)(F)F)c3)cc2)c1` (stereo not given), with 76 °C; and `CC(C)n1nc(-c2sc(C(=O)NCc3ccccn3)nc2-c2ccccc2F)ccc1=O`, with 190 to 191 °C. As to `CC(O)c1cc(N)ccc1N` (stereo not given), the melting point was determined as 124 °C.

With `C[C@@H](NC(=O)C1(C)CC(F)(F)C1)c1ccc(Br)cc1`, the melting point lay in the range of 120 to 122 °C. Then `C#CCN1N=C(c2ccc(Cl)cc2)CN(C)C1=O`, with 159 to 160 °C; and `O=C(Nc1c[nH]nc1C(=O)NCCc1ccccc1)c1ccccn1`, with 214 to 215 °C; and `Cc1noc(C)c1-c1cnc2c(c1)N(Cc1c(F)ccc(F)c1Cl)CCN2`, with 215 to 216 °C.

The molecule `CC1CCc2c(-n3ccnc3)c(F)cc3c(=O)c(C(=O)O)cn1c23` (stereo not given) came in with a melting point of more than 250 °C. `CCN(CC)N(C(C)=O)c1nc2cc3nc(N(C(C)=O)N4CCCCC4)sc3cc2s1` showed a melting point of 280 to 282 °C. `CN1CCN(C(=O)OC2c3ccccc3C(=O)N2c2ccc3cccnc3n2)CC1` (stereo not given) had a melting point of 183 °C.

Molecule `CCN1C(=O)CN(c2ccccc2)C1=O` had a melting point of 142 °C.

In turn, `CC(C)C[C@@H](CO)NC(=O)[C@@H](NC(=O)c1ccc(C=O)o1)C(C)C` had a melting point of 39 to 41 °C. The figure for `Cn1c2c(c3cccc(F)c31)C(=O)NCC2` is 242 °C; for `CC[C@@H](c1ccc(C(F)(F)F)cc1)N(Cc1ccc(C(=O)OC)cc1)S(=O)(=O)c1ccc(Cl)cc1` it is 120 to 121 °C.

The molecule `COc1c(Cl)cc(OCC=C(Cl)Cl)cc1C=NO` showed a melting point of 111 °C. Consider `COc1ccc(SC(C(=O)NO)c2ccccc2)cc1` (stereo not given), for which the melting point turned out to be 155 °C. `NS(=O)(=O)c1cc2[nH]c(CCCCc3ccccc3)nc2cc1Cl`: the melting point lay in the range of 176 to 180 °C. `O=C(Cc1cccc2ccccc12)Nc1cc([C@H]2C[C@@H](NC(=O)c3ccccc3)C2)[nH]n1` had a melting point of 194 °C. `O=C=Nc1cc(NS(=O)(=O)CCl)c(Cl)cc1F` gave a melting point of 102 °C. For the molecule `CC(=S)NC[C@H]1CN(c2ccc(N3CCC(=O)N(C)CC3)c(F)c2)C(=O)O1`, the melting point was 157 to 158 °C.

`CCOc1ccc(C(O)(C(F)(F)F)C(F)(F)Cl)cc1` (stereo not given): the melting point fell in the range of 84 to 86 °C. As to `CCOCCn1c(COc2ccc(CO)cc2)nc2ccccc21`, the melting point lay within 90 to 92 °C. In turn, `COc1ccc(SCCCC(=O)O)cc1OC` displayed a melting point of 78 °C. In the case of `CCCCCCCCCCCCCCCCCCNS(N)(=O)=O`, the melting point lay within 105 to 107 °C.

The molecule `CCON=C(CC)C1=C(O)CC(c2ccc(NS(C)(=O)=O)cc2)CC1=O` (stereo not given) returned a melting point of 115 to 116 °C. With `COc1ccc(N2CCN(c3c(C)c(C)c4c(c3C)C(=O)C(C)(C)O4)CC2)cc1C`, the melting point fell in the range of 129 to 131 °C. Then `CC=CC(=O)Oc1cc(C)nc(C(Cl)(Cl)Cl)n1`, with 55 °C.

Take `O=C(O)C(CCc1ccccc1[N+](=O)[O-])N1C(=O)c2ccccc2C1=O` (stereo not given): the melting point was 177 to 179 °C.

Molecule `O=c1[nH]c(=O)n(C2CC(F)C(CO)O2)cc1C#CI` (stereo not given) had a melting point of 140 °C. Molecule `COC(=O)C1CCC2C3CCC4CC(=O)CCC4(C)C3C(NC3CCCCC3)CC12C` (stereo not given) yielded a melting point of 93 to 94 °C. Molecule `COc1ccc(-c2csc(CC(=O)O)n2)cc1OC1CC2CCC1C2` (stereo not given) had a melting point of 190 to 191 °C.

On to `COc1cccc(-c2csc(N3CCN(C(=O)Nc4onc(C)c4C)CC3)n2)c1`, for which the melting point is 158 to 159 °C.

Take `COc1ccc(-n2cccc2-c2ccc(S(C)(=O)=O)cc2)cc1F`: the melting point lay in the range of 116 to 118 °C. Regarding `N#Cc1c(O)csc1N1CCOCC1`, the melting point came out at 191 °C. On to `CCN(CC)c1ccc(C=O)c(OCc2ccccn2)c1`, for which the melting point fell in the range of 78 to 81 °C.

On to `Cc1cc(Br)cnc1C#N`, for which the melting point was in the range of 86 to 88 °C. The molecule `CN(C)c1nc(O)cc(O)n1` came in with a melting point of more than 300 °C.

Take `c1ccc2c(c1)C1CCC2c2c(OCC3CO3)cccc21` (stereo not given): the melting point is 127 to 130 °C. On to `c1ccc2c(c1)oc1nnccc12`, for which the melting point fell in the range of 120 to 122 °C. On to `CCCc1ccccc1OCCCCCOc1ccc2c(=O)cc(C(=O)OCC)oc2c1CCC`, for which the melting point was in the range of 73 to 75 °C. The molecule `CC(C)n1nc(-c2c(OCC(N)=O)nc(N)nc2-c2ccccc2)ccc1=O` had a melting point of 257 to 261 °C. On to `c1ccc2c3c([nH]c2c1)C(c1ccc2c(c1)OCCO2)NCC3` (stereo not given), for which the melting point is 144 °C. `O=C(NCCC1CCCCC1)c1cc(-c2ncc(Cl)cc2C(=O)O)ccc1Cl` had a melting point of 208 to 211 °C. In turn, `CCN(CC)CCNC(=O)c1cc(Cl)c(N)cc1OCCCN1C(=O)c2ccccc2C1=O` registered a melting point of 141 to 143 °C.

As to `C=C=CS(=O)(=O)c1ncn(C(=O)N(CC)CC)n1`, the melting point was in the range of 98 to 100 °C. With `CC(=O)C(=Cc1ccc(C(F)(F)F)cc1)C(C)=O`, the melting point was 46 to 48 °C. Turning to `O=c1[nH]c2ccccc2c2c(CCO)n(-c3ccccc3)nc12`, the melting point was in the range of 310 to 312 °C.

`O=C(O)CC(CC(=O)Nc1cc(O)c(Cl)cc1F)C(F)(F)F` (stereo not given) came in with a melting point of 171 to 174 °C.

As to `CC(=Cc1ccc(-c2ccccc2)s1)c1ccccc1`, the melting point fell in the range of 115 to 125 °C. The figure for `O=C(NCCN1CCOCC1)Nc1nc2ccc(OCc3c(F)cccc3F)cc2s1` is 219 °C. As to `CC(C)C[C@@H](C(=O)O)N(C)C(=O)OC(C)(C)C`, the melting point fell in the range of 53 to 55 °C. `CCC(C)C1CCCCC1NC(=O)c1sc(C)nc1C(F)(F)F` (stereo not given) came in with a melting point of 112 to 113 °C.

`CCCC12CCC3=C(CCc4cc(OC)ccc43)C1CCC2=O` (stereo not given) showed a melting point of 111 to 113 °C.

Consider `O=S1(=O)N=CN(C2CC2)c2ccc(Br)cc21`, for which the melting point lay in the range of 242 to 244 °C. The figure for `COc1cc2c(c3c1OC(C)(C)C3)C(c1cccc(C(=O)NCC(N)=O)c1)=NC(C)(C)C2` is 141 to 142 °C; for `O=C(Nc1ccccc1)N1CCc2c(cnc3[nH]nc(Br)c23)C1` it is 249 to 250 °C. As for `O=C1NCCCN1c1ccccc1`, the melting point was in the range of 210 to 211 °C. Take `O=C(O)C(c1ccccc1)n1c(=O)c(=O)[nH]c2ccccc21` (stereo not given): the melting point lay within 242 to 244 °C. Take `CC(=O)c1cn(S(=O)(=O)c2ccccc2)c2nccc(-c3ccccc3)c12`: the melting point was in the range of 138 to 140 °C.

Molecule `CN1CCC2(CC1)CN(c1ccccc1)c1ccccc12` had a melting point of 90 to 92 °C. Consider `O=C(O)c1c(-c2ccc(Cl)cc2)ccnc1Br`, for which the melting point is 204 to 208 °C. `Cc1cc(C#N)c(O)c(C(=O)O)c1`: the melting point fell in the range of 213 to 214 °C. In turn, `CC1=NS(=O)(=O)N(C)C(Oc2ccc([N+](=O)[O-])cc2)=N1` displayed a melting point of 194 to 197 °C. Take `COc1cc(OCC(=O)O)c(C)cc1SCc1ccc(-c2cccc(OC(F)(F)F)c2)cc1`: the melting point is 137 °C.
